Laboratory results published in paper PMC10443802, “Targeting a xenobiotic transporter to ameliorate vincristine-induced sensory neuropathy” (JCI Insight, 2023).
“And” between values parts separate entries of the source, which are not always exact repeats. Identical values can stand only once.

Tests used:
RS411 = experiment: Cytotoxicity of vincristine with or without nilotinib, MTT assay, RS411; type: cell-based, human; settings: RS411 cells, vincristine alone, individual replicates
hOATP1C1 = hOATP1C1 (Homo sapiens, UniProt Q9NYB5); experiment: Substrate uptake in HEK293 cells overexpressing hOATP1C1; settings: HEK293 OATP1C1
Description: transfected with transporters of interest, including hOAT1, hOAT3, hOAT4, hOATP1A2, hOATP3A1, hOATP4A1, hOATP5A1, hOATP1C1, hOATP1B1, hOATP1B3, hOATP2B1, hOCT1, hOCT2, hOCTN1, hOCTN2, hASBT, hNTCP, hNPT1, hMATE1, hOSTα/β, hPEPT1, hPEPT2, rOatp1a1, rOatp1a4, rOatp1a5, rOatp1b2, rNtcp, rAsbt, rOat1, and rOct1. Cells were transfected with expression plasmid or vector control lacking any insert using Lipofectin reagent (Invitrogen). Sixteen hours thereafter, cells were washed with transport media (OPTIMEM, Invitrogen) and treated with radiolabeled drug. At various time intervals, cells were washed three times with ice-cold PBS and then lysed with 1% sodium dodecyl sulfate. The cellular radioactivity was quantified by liquid scintillation counting as described above. Similar analyses were performed in HEK293 cells transfected with hOATP1A2, hOATP1C1, mMATE1, and hMATE1, with cells seeded in poly lysine pre-coated 12-well plates. For hOATP1A2 and hOATP1C1, transient transfections were performed with either an empty vector, OATP1A2, or OATP1C1 using Lipofectamine 2000 according to the manufacturers protocol (Invitrogen). At 48 h post transfection, […]
Samples were analyzed using real-time quantitative PCR and Taqman Probes (Applied Biosystems). The relative gene expression was determined using the ΔΔCt method, and normalized to the mouse or human housekeeping gene, GAPDH. […]

mOATP1B2 = target: T1, mOATP1B2 (Mus musculus, UniProt Q9JJL3); experiment: Vincristine uptake, HEK293 cells overexpressing mOATP1B2; type: in vitro ADME
T1 sequence (Q9JJL3 1-689): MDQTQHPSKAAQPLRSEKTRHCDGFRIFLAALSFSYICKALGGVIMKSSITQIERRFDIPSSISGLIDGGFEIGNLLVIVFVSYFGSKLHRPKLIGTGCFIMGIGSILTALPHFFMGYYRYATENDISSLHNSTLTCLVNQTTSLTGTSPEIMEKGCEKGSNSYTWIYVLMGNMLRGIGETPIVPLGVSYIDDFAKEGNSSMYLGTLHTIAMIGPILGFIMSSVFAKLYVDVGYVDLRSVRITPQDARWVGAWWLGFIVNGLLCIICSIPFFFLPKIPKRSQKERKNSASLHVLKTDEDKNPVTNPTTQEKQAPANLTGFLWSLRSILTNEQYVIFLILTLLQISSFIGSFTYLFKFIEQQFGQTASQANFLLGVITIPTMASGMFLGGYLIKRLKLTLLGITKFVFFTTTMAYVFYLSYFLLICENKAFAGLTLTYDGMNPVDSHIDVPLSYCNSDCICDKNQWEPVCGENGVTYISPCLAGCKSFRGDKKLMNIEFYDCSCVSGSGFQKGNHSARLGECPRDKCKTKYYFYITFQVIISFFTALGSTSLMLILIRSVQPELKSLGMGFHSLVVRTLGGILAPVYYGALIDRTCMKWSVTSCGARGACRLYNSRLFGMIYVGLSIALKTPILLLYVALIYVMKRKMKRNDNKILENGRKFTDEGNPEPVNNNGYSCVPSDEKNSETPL
Description: Relative uptake is expressed as percentage change compared with empty vector controls (n = 4–14 per group). […] Human OATP1B1 and OATP1B3 transporter–overexpressed cells were used as positive controls; empty vector controls were used as the negative control. LD, 100 bp ladder. […] Mechanical allodynia (C), thermal hyperalgesia (D), and sciatic nerve maximal action potential amplitudes (E) are expressed as percentage change relative to baseline values (n = 6–8 per group). Statistical analysis was performed using a 2-way ANOVA with Bonferroni’s post hoc test. **P < 0.01, ***P < 0.001, ****P < 0.0001, compared with baseline values. […] Data are shown as mean ± SEM.
Axioskop WideField Light Microscope, as described previously (10). Representative images were captured with a QIClick Digital CCD color camera.
The histograms of g-ratio (axonal diameter/whole fiber diameter as a measure of myelination degree in each fiber) distribution were generated. An observer blinded to the group compositions performed all the morphometric determinations. […]
After incubation, transport was halted by aspirating radiolabeled drug, and rinsing the cells three times with ice-cold 1X PBS. Total radioactivity originating from the substrates was measured by lysing the cells with 1N NaOH, neutralized with 2N HCL, and measuring total radioactivity by liquid scintillation counting using an LS 6500 Counter (Beckman). […]

Sequence of hOATP1C1 (Q9NYB5 whole entry): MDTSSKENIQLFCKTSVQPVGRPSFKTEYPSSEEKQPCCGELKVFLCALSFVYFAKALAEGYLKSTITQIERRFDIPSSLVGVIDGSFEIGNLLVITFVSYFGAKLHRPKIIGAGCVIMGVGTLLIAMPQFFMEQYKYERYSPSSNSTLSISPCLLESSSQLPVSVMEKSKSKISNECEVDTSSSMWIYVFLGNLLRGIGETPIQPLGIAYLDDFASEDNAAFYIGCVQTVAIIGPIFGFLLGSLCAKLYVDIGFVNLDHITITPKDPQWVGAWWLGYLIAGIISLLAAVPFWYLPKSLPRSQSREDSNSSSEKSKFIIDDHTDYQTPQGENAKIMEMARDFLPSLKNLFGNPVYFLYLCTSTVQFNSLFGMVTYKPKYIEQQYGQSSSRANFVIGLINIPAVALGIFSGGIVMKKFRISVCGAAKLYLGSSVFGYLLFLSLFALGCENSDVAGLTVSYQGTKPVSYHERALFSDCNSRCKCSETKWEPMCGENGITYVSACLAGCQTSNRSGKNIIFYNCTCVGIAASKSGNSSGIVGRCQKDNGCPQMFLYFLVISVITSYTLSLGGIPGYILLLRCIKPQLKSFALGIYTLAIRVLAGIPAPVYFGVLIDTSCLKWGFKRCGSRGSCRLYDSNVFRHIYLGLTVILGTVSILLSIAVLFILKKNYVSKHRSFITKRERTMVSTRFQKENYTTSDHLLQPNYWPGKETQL

CC[C@]1(O)C[C@H]2CN(CCc3c([nH]c4ccccc34)[C@@](C(=O)OC)(c3cc4c(cc3OC)N(C=O)[C@H]3[C@@](O)(C(=O)OC)[C@H](OC(C)=O)[C@]5(CC)C=CCN6CC[C@]43[C@@H]65)C2)C1 [Vincristine, vincristine]
IC50 (RS411): 4.81 nM and 6.23 nM and 4 nM and 8.42 nM and 6.45 nM and 7.46 nM and 5.33 nM and 4.58 nM and 7.35 nM
Contribution of transporter to cellular uptake of vincristine (hOATP1C1): do not appreciably contribute to the cellular uptake of vincristine
Vincristine uptake (% of vector control) (mOATP1B2): 209.00 % of vector control and 219.00 % of vector control and 238.00 % of vector control and 218.00 % of vector control and 216.00 % of vector control and 220.00 % of vector control
